Measurements from patent US11684616B2, “Azalactam compounds as HPK1 inhibitors” (PFIZER INC., priority 2020, dated 2023).
Read-outs that look alike come from different tables or passages of the source.

Legend:
[1] = tested on: Phospho-SLP-76 (Ser376) in Jurkat cells; test: Phospho-SLP-76 (Ser376) HTRF assay in anti-CD3 stimulated Jurkat cells; type: cell-based; details: 30 min pre-treatment, anti-CD3 stimulation 15 min, read-out: pSLP76 IC50
Protocol: Cell Based Assays Phospho-SLP-76 (Ser376) Homogeneous Time Resolved Fluorescence (HTRF) Assay
Jurkat cells were seeded at 90,000 cells/well in 90 uL of RPMI1640 growth medium containing 10% FBS and incubated at 37° C. with 5% CO2 overnight. The following day, compounds were serially diluted from a 10 mM top dose for an 11-point 3-fold dilution curve in DMSO. Compounds were intermediately diluted 1:100 into growth media prior to diluting 1:10 on cells for final concentration 10 μM to 0.1 nM in 0.1% DMSO. After 30 min pre-treatment with compounds, the cells were stimulated using 200 μg/mL of F(ab)2 complexed anti-CD3 (clone UCTH1) for 15 min at 37° C. with 5% CO2. Stimulation was stopped with ice cold PBS and cells were harvested by centrifugation before lysis in Cisbio lysis buffer (Cisbio, Bedford, Mass.). Lysates were transferred to white, low-volume plates containing anti-phospho-SLP-76-Cryptate plus anti-phospho-SLP-76-d2 HTRF antibodies and incubated overnight at room temperature protected from light according to the manufacturer's protocol (Cisbio, Bedford, Mass.). HTRF was measured on a Perkin Elmer Envision and IC50 values were calculated by concentration-response curve fitting utilizing four-parameter nonlinear regression analyses.

[2] = molecular target: human full-length autophosphorylated recombinant HPK1 (Homo sapiens (Human), UniProt Q92918); test: HPK1 biochemical enzyme assay (chelation-enhanced fluorescence, CHEF); details: 0.5 nM HPK1, 45 μM ATP, Morrison fit
Chain of human full-length autophosphorylated recombinant HPK1 (Q92918 other isoform, or with tags, fused parts or gaps): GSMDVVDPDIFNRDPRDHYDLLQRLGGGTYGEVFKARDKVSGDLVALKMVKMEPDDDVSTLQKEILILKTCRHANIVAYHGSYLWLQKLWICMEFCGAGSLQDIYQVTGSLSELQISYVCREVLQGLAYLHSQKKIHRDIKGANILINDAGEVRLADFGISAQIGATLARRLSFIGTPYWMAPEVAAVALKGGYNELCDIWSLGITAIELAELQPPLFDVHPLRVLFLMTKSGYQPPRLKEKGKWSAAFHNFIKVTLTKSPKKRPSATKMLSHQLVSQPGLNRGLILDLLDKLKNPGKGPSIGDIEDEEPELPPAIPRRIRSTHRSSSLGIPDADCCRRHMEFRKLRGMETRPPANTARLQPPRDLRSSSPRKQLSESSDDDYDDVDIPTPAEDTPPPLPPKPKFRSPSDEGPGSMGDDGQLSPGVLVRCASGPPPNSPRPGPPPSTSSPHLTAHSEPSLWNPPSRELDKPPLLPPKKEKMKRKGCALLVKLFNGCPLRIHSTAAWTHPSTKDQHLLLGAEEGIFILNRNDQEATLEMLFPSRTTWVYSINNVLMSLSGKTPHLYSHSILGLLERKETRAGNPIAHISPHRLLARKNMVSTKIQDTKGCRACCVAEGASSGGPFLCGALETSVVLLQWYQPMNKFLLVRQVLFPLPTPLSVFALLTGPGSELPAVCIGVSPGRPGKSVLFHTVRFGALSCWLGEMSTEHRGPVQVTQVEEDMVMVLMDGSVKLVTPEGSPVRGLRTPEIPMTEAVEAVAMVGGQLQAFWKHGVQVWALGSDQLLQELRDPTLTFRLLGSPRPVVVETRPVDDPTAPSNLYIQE
Protocol: HPK1 Biochemical Enzyme Assay
HPK1 enzyme inhibition was measured by using the fluorescence-based chelation-enhanced fluorescence (CHEF) method (1), and by using a proprietary fluorescent peptide substrate, in which a cysteine residue is alkylated with a sulfonamido-oxine-based derivative to afford an amino acid termed C-Sox (CSx). […] Initial reaction velocities were determined by following the peptide fluorescence (λex=360 nm, λem=500 nm) at 30° C. for 15 min in a Tecan M1000 plate reader (Tecan Group Ltd., Mannedorf, Zurich, Switzerland).
Production of Autophosphorylated Full-Length Recombinant HPK1
The DNA sequence encoding full-length human HPK1 (Genbank NM_001042600.2) was synthesized at GenScript and contained a limited number of silent base changes to eliminate certain restriction endonuclease enzyme recognition sites, and fused to a DNA sequence encoding a Tobacco Etch Virus (TEV)-cleavable N-terminal polyhistidine purification tag. A recombinant baculovirus was prepared by using the Bac-to-Bac method (InVitrogen) and was used to infect 9 L of Sf21 insect cells. All purification steps were carried out at 4° C. Cells containing recombinant HPK1 were lysed in 50 mM HEPES-NaOH, pH 7.5, 250 mM NaCl, 1 mM tris(2-carboxyethyl)phosphine (TCEP), 10 μM leupeptin (Sigma), 10 μM E-64 (Sigma), and one ‘EDTA-free’ protease inhibitor tablet (Roche) per 75 mL buffer, centrifuged at 15,000×g for 1 h and the supernatant passed over 5 mL of ProBond IMAC resin (InVitrogen). After washing, HPK1 was eluted with 12.5 mL of 50 mM HEPES-NaOH, pH 7.5, 400 mM NaCl, 250 mM imidazole-HCl pH 7.5, 1 mM TCEP, 2 μM leupeptin, and 2 μM E-64. The eluted HPK1 was dialyzed overnight against 0.8 L of 50 mM HEPES-NaOH, pH 7.5, 400 mM NaCl, 20 mM imidazole-HCl pH 7.5, 1 mM TCEP, 2 μM leupeptin, 2 μM E-64, 2 mM ATP-NaOH pH 7.3, 5 mM MgCl2 and 1 mg TEV (this step simultaneously allows for reduction of the imidazole concentration in preparation for the subsequent reverse IMAC chromatography step, removal of the polyhistidine purification tag by TEV protease, and autophosphorylation of HPK1 in the presence of MgATP). The de-tagged and autophosphorylated HPK1 was adjusted to 40 mM imidazole-HCl, pH 7.5, and passed through a 10 mL column of ProBond resin similarly equilibrated. […] The peak fractions containing HPK1 were pooled and concentrated to approximately 2.5 mL by using a centrifugal concentrator (Millipore). The concentrated HPK1 was adjusted to 20% (v/v) glycerol by the addition of 50% (v/v) glycerol, resulting in a final formulation of 25 mM HEPES-NaOH pH 7.5, 250 mM NaCl, 0.25 mM TCEP and 20% (v/v) glycerol. […] Aliquots of the enzyme were flash frozen in liquid nitrogen and stored at −80° C. The final product contains a glycine-serine extension at the N-terminus of the full-length protein, as a result of the cloning strategy.

Compound	IC50 [1] [nM]	Ki [2] [nM]	IC50 ([1]; Homo sapiens, Jurkat) [nM]
CC[C@@H]1CCc2nnc(-c3cccc(N4Cc5c(cc(N6CCC[C@H]6C)nc5[C@H](N)CC)C4=O)n3)n21 (single isomer, unassigned) [Example 13]	–	< 0.07	36
CC[C@@H]1CCc2nnc(-c3cccc(N4Cc5c(cc(N6CCC[C@H]6C)nc5[C@@H](N)CC)C4=O)n3)n21 (single isomer, unassigned) [Example 16]	–	0.093	487
C[C@H]1CCc2nnc(-c3cccc(N4Cc5c(cc(N(C)C)nc5C(C)(C)N)C4=O)n3)n21 (single isomer, unassigned) [Example 22, 4-(2-aminopropan-2-yl)-6-(dimethyl-amino)-2-{6-[(5ξ)-5-methyl-6,7-dihydro-5H-pyrrolo[2,1-c][1,2,4]triazol-3-yl]pyridin-2-yl}-2,3-dihydro-1H-pyrrolo[3,4-c]pyridin-1-one]	–	0.08	133
C[C@@H]1CCc2nnc(-c3cccc(N4Cc5c(cc(N(C)C)nc5C(C)(C)N)C4=O)n3)n21 (single isomer, unassigned) [Example 23, 4-(2-aminopropan-2-yl)-6-(dimethyl-amino)-2-{6-[(5ξ)-5-methyl-6,7-dihydro-5H-pyrrolo[2,1-c][1,2,4]triazol-3-yl]pyridin-2-yl}-2,3-dihydro-1H-pyrrolo[3,4-c]pyridin-1-one]	–	5	329
C[C@@H]1CCCN1c1cc2c(c([C@@H](C)N)n1)CN(c1cccc(-c3nnc4n3[C@H](C)CC4)n1)C2=O (single isomer, unassigned) [Example 25]	–	< 0.05	53
C[C@H](N)c1nc(N2CCC[C@H]2C)cc2c1CN(c1cccc(-c3nnc4n3[C@@H](C)CC4)n1)C2=O (single isomer, unassigned) [Example 26]	–	0.72	133
COC[C@@H](N)c1nc(C2(C)CC2)cc2c1CN(c1cccc(-c3nnc4n3[C@@H](CF)CC4)n1)C2=O (single isomer, unassigned) [Example 35]	–	0.3	181
CC[C@@H](N)c1nc(C2(C)CC2)cc2c1CN(c1cccc(-c3nnc4n3[C@@H](CO)CC4)n1)C2=O (single isomer, unassigned) [Example 36]	–	0.074	110
CCCn1cnnc1-c1cccc(N2Cc3c(cc(N4CCC[C@H]4C)nc3[C@@H](C)N)C2=O)n1 (single isomer, unassigned) [Example 101]	–	0.17	118
CCn1c(C)nnc1-c1cccc(N2Cc3c(cc(N4CCC[C@H]4C)nc3[C@@H](C)NC)C2=O)n1 (single isomer, unassigned) [Example 107]	–	1.02	140
CCn1c(C)nnc1-c1cccc(N2Cc3c(cc(N4CCC[C@H]4C)nc3[C@H](C)NC)C2=O)n1 (single isomer, unassigned) [Example 108]	–	0.61	84
CCn1cnnc1-c1cccc(N2Cc3c(cc(N4CCC[C@H]4C)nc3[C@H](C)NC)C2=O)n1 (single isomer, unassigned) [Example 109]	–	0.31	61
CCCn1cnnc1-c1cccc(N2Cc3c(cc(C4(C)CC4)nc3[C@@H](C)N)C2=O)n1 (single isomer, unassigned) [Example 117, 4-[(1ξ)-1-aminoethyl]-6-(1-methyl-cyclopropyl)-2-[6-(4-propyl-4H-1,2,4-triazol-3-yl)pyridin-2-yl]-2,3-dihydro-1H-pyrrolo[3,4-c]pyridin-1-one]	–	1.02	270
CC[C@@H](N)c1nc(C2(C)CC2)cc2c1CN(c1cccc(-c3nncn3CC)n1)C2=O (single isomer, unassigned) [Example 119, 4-[(1ξ)-1-aminopropyl]-2-[6-(4-ethyl-4H-1,2,4-triazol-3-yl)pyridin-2-yl]-6-(1-methylcyclo-propyl)-2,3-dihydro-1H-pyrrolo[3,4-c]pyridin-1-one]	–	0.9	165
CC[C@H](N)c1nc(C2(C)CC2)cc2c1CN(c1cccc(-c3nncn3CC)n1)C2=O (single isomer, unassigned) [Example 120, 4-[(1ξ)-1-aminopropyl]-2-[6-(4-ethyl-4H-1,2,4-triazol-3-yl)pyridin-2-yl]-6-(1-methylcyclo-propyl)-2,3-dihydro-1H-pyrrolo[3,4-c]pyridin-1-one]	–	2.97	531
CCCn1cnnc1-c1cccc(N2Cc3c(cc(C4(C)CC4)nc3[C@H](N)CC)C2=O)n1 (single isomer, unassigned) [Example 121, 4-[(1ξ)-1-aminopropyl]-6-(1-methylcyclo-propyl)-2-[6-(4-propyl-4H-1,2,4-triazol-3-yl)pyridin-2-yl]-2,3-dihydro-1H-pyrrolo[3,4-c]pyridin-1-one]	–	4.12	553

Next, values leading:

IC50 [1] [nM]	Ki [2] [nM]	IC50 ([1]; Homo sapiens, Jurkat) [nM]	Compound
42	< 0.05	–	4-[(1ξ)-1- aminoethyl]-2- {6-[(5R)-5- (fluoromethyl)- 6,7-dihydro- 5H-pyrrolo[2,1- c][1,2,4]triazol- 3-yl]pyridin-2- yl}-6-[(2R)-2- methylpyrroli- din-1-yl]-2,3- dihydro-1H- pyrrolo[3,4- c]pyridin-1-one [Example 18]
–	0.93	340	CC[C@H]1CCc2nnc(-c3cccc(N4Cc5c(cc(N6CCC[C@H]6C)nc5[C@H](N)CC)C4=O)n3)n21 (single isomer, unassigned) [Example 14]
–	< 0.05	56	C[C@H](N)c1nc(N2CCC[C@H]2C)cc2c1CN(c1cccc(-c3nnc4n3[C@H](C)CC4)n1)C2=O (single isomer, unassigned) [Example 27]
–	< 0.05	49	CC[C@@H](N)c1nc(C2(C)CC2)cc2c1CN(c1cccc(-c3nnc4n3[C@@H](C)CC4)n1)C2=O (single isomer, unassigned) [Example 37]
–	0.18	197	COC[C@@H](N)c1nc(C2(C)CC2)cc2c1CN(c1cccc(-c3nnc4n3[C@@H](CO)CC4)n1)C2=O (single isomer, unassigned) [Example 38]
–	0.11	107	CCCn1cnnc1-c1cccc(N2Cc3c(cc(N4CCC[C@H]4C)nc3[C@H](C)N)C2=O)n1 (single isomer, unassigned) [Example 102]
–	0.09	42	CCn1cnnc1-c1cccc(N2Cc3c(cc(N4CCC[C@H]4C)nc3[C@@H](C)NC)C2=O)n1 (single isomer, unassigned) [Example 110]
–	1.5	324	CCCn1cnnc1-c1cccc(N2Cc3c(cc(C4(C)CC4)nc3[C@H](C)N)C2=O)n1 (single isomer, unassigned) [Example 118, 4-[(1ξ)-1-aminoethyl]-6-(1-methyl-cyclopropyl)-2-[6-(4-propyl-4H-1,2,4-triazol-3-yl)pyridin-2-yl]-2,3-dihydro-1H-pyrrolo[3,4-c]pyridin-1-one]
